Data as given in patent US20060069132A1, “Azolecarboxamide herbicides” (priority 2004, published 2006).

Key:
Assay in all cases: Test J Compounds 2 and 6 alone and in combination with other herbicides, foliage spray
Details in all cases: applied alone
[1] = system: barnyardgrass (ECHCG); type: in vivo, Echinochloa crus-galli; set-up: key: percentage herbicidal effect (observed)
Source text: (§1) Colby's Equation was used to calculate the expected additive herbicidal effect of the mixtures of Compound 6 with Harmony® Extra (i.e. a 2:1 mixture by weight of thifensulfuron-methyl and tribenuron-methyl). Colby's Equation (Colby, S. R. “Calculating Synergistic and Antagonistic Responses of Herbicide Combinations,” Weeds, 15(1), pp 20-22 (1967)) calculates the expected additive effect of herbicidal mixtures, and for two active ingredients is of the form: Pa+b=Pa+Pb−(PaPb/100) wherein • Pa+b is the percentage effect of the mixture expected from additive contribution of the individual components, • Pa is the observed percentage effect of the first active ingredient at the same use rate as in the mixture, and • Pb is the observed percentage effect of the second active ingredient at the same use rate as in the mixture.
(§2) Seeds of test plants consisting of barnyardgrass (ECHCG; Echinochloa crus-galli (L.) Beauv.), blackgrass (ALOMY; Alopecurus myosuroides Huds.), Surinam grass (BRADC; Urochloa decumbens (Staph) R. D. Webster, previously named Brachiaria decumbens Stapf), cocklebur (XANST, Xanthium strumarium L.), corn (ZEAMD, Zea mays L. cv. ‘Pioneer 33G26’), large crabgrass (DIGSA, Digitaria sanguinalis (L.) Scop.), giant foxtail (SETFA, Setaria faberi Herrm.), lambsquarters (CHEAL, Chenopodium album L.), morningglory (IPOCO, Ipomoea coccinea L.), pigweed (AMARE, Amaranthus retroflexus L.), velvetleaf (ABUTH, Abutilon theophrasti Medik.) wheat (TRZAS, Triticum aestivum L. cv. ‘Recital’) and wild oat (AVEFA, Avena fatua L.) were planted in Redi-Earth® planting medium (Scotts Company, 14111 Scottslawn Road, Marysville, Ohio 43041) comprising spaghnum peat moss and vermiculite. Seeds of small-seeded species were planted about 1 cm deep; larger seeds were planted about 2.5 cm deep. Plants were grown in a greenhouse using supplemental lighting to maintain a photoperiod of about 14 hours; daytime and nighttime temperatures were about 24-30° C. and 22-25° C., respectively. Balanced fertilizer was applied through the watering system. The plants were grown for 7 to 11 days so that at time of treatment the plants ranged in height from 2 to 18 cm (1- to 4-leaf stage). Treatments consisted of Compounds 2 and 6 (technical material), atrazine (90DF), terbacil (Sinbar® 80DF), hexazinone (Velpar® 75WG), diuron (Karmex® 80WP) and paraquat (Gramoxone® Extra, 37%) alone and in combination, suspended or dissolved in an aqueous solvent comprising a nonionic surfactant and applied as a foliage spray using a volume of 541 L/ha. Each treatment was triply replicated. […] Treated plants and controls were maintained in the greenhouse and watered as needed with care to not wet the foliage for the first 24 hours after treatment. The effects on the plants 15 days after treatment were visually compared to untreated controls. Plant response ratings, listed in Table J as the means of the thee replicates, are based on a scale of 0 to 100 where 0 is no effect and 100 is complete control. Also listed in Table J are the expected effects for the mixtures calculated using Colby's Equation.

[2] = system: blackgrass (ALOMY); type: in vivo, Alopecurus myosuroides; set-up: key: 0 = no effect, 100 = complete control
Source text: as §1, §2

[3] = system: Surinam grass (BRADC); type: in vivo, Urochloa decumbens; set-up: key: 0 = no effect, 100 = complete control
Source text: as §1, §2

[4] = system: giant foxtail (SETFA); type: in vivo, Setaria faberi; set-up: key: 0 = no effect, 100 = complete control
Source text: as §2

[5] = system: morningglory (IPOCO); type: in vivo, Ipomoea coccinea; set-up: key: 0 = no effect, 100 = complete control
Source text: as §2

[6] = system: lambsquarters (CHEAL); type: in vivo, Chenopodium album; set-up: key: % herbicidal effect (observed)
Source text: as §1, §2

[7] = system: wild oat (AVEFA); type: in vivo, Avena fatua; set-up: key: 0 = no effect, 100 = complete control
Source text: as §1, §2

[8] = system: cocklebur (XANST); type: in vivo, Xanthium strumarium; set-up: key: 0 = no effect, 100 = complete control
Source text: as §2

[9] = system: large crabgrass (DIGSA); type: in vivo, Digitaria sanguinalis; set-up: key to DIGSA Obsd.: 0 = no effect, 100 = complete control
Source text: as §1, §2

[10] = system: wheat (TRZAS); type: in vivo, Triticum aestivum; set-up: key: 0 = no effect, 100 = complete control
Source text: as §1, §2

[11] = system: velvetleaf (ABUTH); type: in vivo, Abutilon theophrasti; set-up: key: 0 = no effect, 100 = complete control
Source text: as §1, §2

[12] = system: corn (ZEAMD); type: in vivo, Zea mays; set-up: key: percentage herbicidal effect (observed)
Source text: as §1, §2

[13] = system: pigweed (AMARE); type: in vivo, Amaranthus retroflexus; set-up: key: 0 = no effect, 100 = complete control
Source text: as §1, §2

SMILES	ECHCG Obsd. ([1]; 250 g a.i./ha)	ALOMY Obsd. ([2]; 250 g a.i./ha)	BRADC Obsd. ([3]; 250 g a.i./ha)	SETFA Obsd. ([4]; 250 g a.i./ha)	IPOCO Obsd. ([5]; 250 g a.i./ha)	CHEAL Obsd. ([6]; 250 g a.i./ha)	AVEFA Obsd. ([7]; 250 g a.i./ha)	XANST Obsd. ([8]; 250 g a.i./ha)	DIGSA Obsd. ([9]; 250 g a.i./ha)	TRZAS Obsd. ([10]; 250 g a.i./ha)	ABUTH Obsd. ([11]; 250 g a.i./ha)	ZEAMD Obsd. ([12]; 250 g a.i./ha)	AMARE Obsd. ([13]; 250 g a.i./ha)	also measured
CCNc1nc(Cl)nc(NC(C)C)n1 [atrazine]	23	28	5	18	75	95	28	72	5	8	25	12	75	ECHCG Obsd. ([1]; 125 g a.i./ha): 20; ALOMY Obsd. ([2]; 125 g a.i./ha): 3; BRADC Obsd. ([3]; 125 g a.i./ha): 15; SETFA Obsd. ([4]; 125 g a.i./ha): 0; IPOCO Obsd. ([5]; 125 g a.i./ha): 52; CHEAL Obsd. ([6]; 125 g a.i./ha): 67; AVEFA Obsd. ([7]; 125 g a.i./ha): 13; XANST Obsd. ([8]; 125 g a.i./ha): 45; DIGSA Obsd. ([9]; 125 g a.i./ha): 5; TRZAS Obsd. ([10]; 125 g a.i./ha): 3; ABUTH Obsd. ([11]; 125 g a.i./ha): 15; ZEAMD Obsd. ([12]; 125 g a.i./ha): 3; AMARE Obsd. ([13]; 125 g a.i./ha): 38
Cc1[nH]c(=O)n(C(C)(C)C)c(=O)c1Cl [terbacil]	15	62	75	18	78	93	68	68	45	55	92	30	63	ECHCG Obsd. ([1]; 500 g a.i./ha): 63; ALOMY Obsd. ([2]; 500 g a.i./ha): 97; BRADC Obsd. ([3]; 500 g a.i./ha): 73; SETFA Obsd. ([4]; 500 g a.i./ha): 55; IPOCO Obsd. ([5]; 500 g a.i./ha): 100; CHEAL Obsd. ([6]; 500 g a.i./ha): 100; AVEFA Obsd. ([7]; 500 g a.i./ha): 97; XANST Obsd. ([8]; 500 g a.i./ha): 97; DIGSA Obsd. ([9]; 500 g a.i./ha): 48; TRZAS Obsd. ([10]; 500 g a.i./ha): 90; ABUTH Obsd. ([11]; 500 g a.i./ha): 100; ZEAMD Obsd. ([12]; 500 g a.i./ha): 75; AMARE Obsd. ([13]; 500 g a.i./ha): 97
